The experiment concerns the target T1, histamine 3 receptor (H3R) (Homo sapiens, UniProt Q9Y5N1).
T1 construct: expressed in transfected cells; host or cells: CHO cells (HR3-CHO cell line), membrane preparation
In words: Binding Assay with 3H-(R)α-Methylhistamine (competition binding, membrane of the human HR3-CHO cell line). The settings on record: competition binding vs 3H(R)α-Methylhistamine (1 nM = Kd), 1 hour room temperature, Ki calculated from IC50 by Cheng-Prusoff. How it is done:
Binding Assay with ^3H—(R)α-Methylhistamine
Saturation binding experiments were performed using HR3-CHO membranes prepared as described in Takahashi, K, Tokita, S., Kotani, H. (2003) J. Pharmacol. Exp. Therapeutics 307, 213-218.
An appropriate amount of membrane (60 to 80 μg protein/well) was incubated with increasing concentrations of ^3H(R)α-Methylhistamine di-hydrochloride (0.10 to 10 nM). Non specific binding was determined using a 200 fold excess of cold (R)α-Methylhistamine dihydrobromide (500 nM final concentration). The incubation was carried out at room temperature (in deep-well plates shaking for three hours). The final volume in each well was 250 μl. The incubation was followed by rapid filtration on GF/B filters (pre-soaked with 100 μl of 0.5% PEI in Tris 50 mM shaking at 200 rpm for two hours). The filtration was made using a cell-harvester and the filter plates were then washed five times with ice cold washing buffer containing 0.5 M NaCl. After harvesting, the plates were dried at 55° C. for 60 min, then we added scintillation fluid (Microscint 40, 40 microl in each well) and the amount of radioactivity on the filter was determined in Packard top-counter after shaking the plates for two hours at 200 rpm at room temperature.
Binding Buffer: 50 mM Tris-HCl pH 7.4 and 5 mM MgCl2×6H2O pH 7.4. Washing Buffer: 50 mM Tris-HCl pH 7.4 and 5 mM MgCl2×6H2O and 0.5 M NaCl pH 7.4.
Indirect measurement of affinity of H3R inverse agonists: twelve increasing concentrations (ranging from 10 μM to 0.3 nM) of the selected compounds were always tested in competition binding experiments using membrane of the human HR3-CHO cell line. An appropriate amount of protein, e.g. approximately 500 cpm binding of RAMH at Kd, were incubated for 1 hour at room temperature in 250 μl final volume in 96-well plates in presence of ^3H(R)α-Methylhistamine (1 nM final concentration=Kd). […]
All compounds were tested at a single concentration in duplicates. […] Ki's were calculated from IC50 based on Cheng-Prusoff equation (Cheng, Y, Prusoff, W H (1973) Biochem Pharmacol 22, 3099-3108).
T1 sequence (Q9Y5N1 whole entry): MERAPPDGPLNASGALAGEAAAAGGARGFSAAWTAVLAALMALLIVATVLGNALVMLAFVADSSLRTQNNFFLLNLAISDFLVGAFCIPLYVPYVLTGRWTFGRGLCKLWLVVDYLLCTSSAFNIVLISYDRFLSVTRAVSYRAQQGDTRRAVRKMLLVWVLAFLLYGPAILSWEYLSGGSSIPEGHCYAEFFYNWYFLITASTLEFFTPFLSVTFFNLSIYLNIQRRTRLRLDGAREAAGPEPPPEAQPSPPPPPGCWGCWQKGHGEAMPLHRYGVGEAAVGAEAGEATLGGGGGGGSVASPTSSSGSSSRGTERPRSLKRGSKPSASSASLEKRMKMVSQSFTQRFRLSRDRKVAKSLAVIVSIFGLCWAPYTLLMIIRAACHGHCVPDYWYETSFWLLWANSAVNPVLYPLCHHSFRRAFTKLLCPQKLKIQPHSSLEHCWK
What is called Ki is the equilibrium dissociation constant of an inhibitor or competing ligand from its target. Consider `O=C(Nc1cc(N2CCN(C3CCCC3)CC2)ccn1)c1cccc(F)c1` [Example 48, N-[4-(4-cyclopentyl-piperazin-1-yl)-pyridin-2-yl]-3-fluoro-benzamide], for which the Ki is 76.7 nM.

Regarding `O=C(Nc1ccnc(N2CCN(C3CCCC3)CC2)c1)C1CCCCC1` [Example 11, cyclohexanecarboxylic acid [2-(4-cyclopentyl-piperazin-1-yl)-pyridin-4-yl]-amide], the Ki is 8.5 nM.

Take `O=C(Nc1ccnc(N2CCN(C3CCCC3)CC2)c1)N1CCC(F)CC1` [Example 66, 4-fluoro-piperidine-1-carboxylic acid [2-(4-cyclopentyl-piperazin-1-yl)-pyridin-4-yl]-amide]: the Ki is 48.6 nM.

The record behind these values is patent publication US7612076B2, “Piperazinyl-pyridine derivatives” (Hoffman-La Roche Inc., priority 2004, dated 2009).
